In patent US7419961B2, “9a-azalides with anti-inflammatory activity” (Zambon S.p.A., priority 2002, dated 2008):
≈ marks a conversion by molar mass, not a printed value.

Experiments:
[1] = test system: mouse ear edema induced by PMA (phorbol myristate acetate); assay: Acute contact dermatitis: TPA-induced auricular edema; type: in vivo, CD1 mice; conditions: 500 μg/ear topical in TPDS, 30 min before TPA 0.01%, sacrifice 6 h later
Method: Groups of 5-6 CD1 mice (18-24 g) were used. • Administration of the Compounds All the macrolide derivatives were dissolved in Trans-phase Delivery System (TPDS), a vehicle containing benzyl alcohol 10%, acetone 40% and isopropanol 50%. 15 microliters of the compounds (500 μg), dissolved in TPDS, were applied topically to the internal surface of one ear; 30 minutes later, 12 microliters of a solution of tetradecanoyl phorbol acetate (TPA) at a concentration of 0.01% dissolved in acetone, were applied to the same area. Six hours later, the animals were sacrificed by inhalation of CO2. • Evaluation of the Results Two methods were used for assessing the auricular edema: • a) Weighing a defined portion of auricular pinna. • b) Measurement of auricular thickness using precision spring calipers. The degree of edema was calculated by subtracting the weight or the thickness of the untreated ear from that of the treated contralateral ear. To determine the degree of remission of the edema, the difference (weight or thickness) of the groups treated with TPA+macrolides relative to those treated with just TPA was compared. The activity of the macrolides was measured using the modified method of Zunic et al. (1998): MDL (Lysyl) GDP, a non-toxil muramyl dipeptide derivative inhibits cytokine production by activated macrophages and protects mice from phorbol ester- and oxazolone-induced inflammation (J. Invest. Dermatol., 111 (1), 77-82). The data relating to erythromycin and azithromycin refer to treatment in a single dose at 500 μg/ear.

[2] = test system: Streptococcus pneumoniae ATCC 49619; assay: Antibiotic activity, MIC in liquid culture medium; type: cell-based; conditions: ATCC49619, lowest concentration that completely inhibits visible growth, read-out: Str. pneum. ATTC 49619 MIC
Method: (§1) The MIC values were determined in liquid culture medium by the technique described in the “Manual of Clinical Microbiology, 7th edition (1999), American Society for Microbiology”.

[3] = test system: Staphylococcus aureus ATCC 29213; assay: Antibiotic activity, MIC in liquid culture medium; type: cell-based; conditions: ATCC29213, lowest concentration that completely inhibits visible growth, read-out: Sta. aureus ATCC 29213 MIC
Method: as §1

[4] = test system: Enterococcus faecalis ATCC 29212; assay: Antibiotic activity, MIC in liquid culture medium; type: cell-based; conditions: ATCC29212, lowest concentration that completely inhibits visible growth, read-out: Enter. faec. ATCC 29212 MIC
Method: as §1

[5] = test system: Streptococcus pyogenes ATCC 19615; assay: Antibiotic activity at 128 μg/ml; type: cell-based
Method: as §1

[6] = test system: Staphylococcus aureus ATCC 6538; assay: Antibiotic activity at 128 μg/ml; type: cell-based
Method: as §1

[7] = test system: accumulation of neutrophils in the rat lung induced by LPS; assay: LPS-induced pulmonary inflammation in the rat; type: in vivo; conditions: oral single dose 100, 40 and 10 μmol/kg one hour before LPS 0.4 mg/kg endotracheally; 20 h; erythromycin: single oral dose 130 μmol/kg
Method: The rats were given a single dose of 0.4 mg/kg of LPS (E. coli, serotype 026:6) endotracheally, by the trans-oral route. Tracheal instillation was carried out under halothane anesthesia and 20 hours after the endotracheal administration of LPS/saline solution the animals were sacrificed by urethane overdose. • Washing
The lungs were washed with four aliquots each of 5 ml of saline solution with heparin 10 IU/ml. The cellular suspension was concentrated by low-speed centrifugation and the cellular pellet was suspended. • Cell Count and Differentiation
The total cell count was obtained using a hemocytometer.
The differential count was obtained from cytospin preparations stained with May-Grunwald-Giemsa (Tamaoki J., Tagaya E., Yamawaki I., Sakai N., Nagai A., Konno K., 1995. Effect of erythromycin on endotoxin-induced microvascular leakage in the rat trachea and lungs. Am. J. Respir. Crit. Care Med., 151, 1582-8). The rats received the test compounds orally at a dose of 100, 40 and 10 μmol/kg as a single dose administered orally one hour before exposure to LPS.
The ED/50 value is the dose that caused 50% reduction in the neutrophil count in the bronchial wash fluid.
The result for erythromycin relates to oral treatment in a single dose with 130 μmol/kg.

[8] = method a: weighing a defined portion of auricular pinna

| MIC [4] | Structure (SMILES) | inhibition in vivo at 500 µg/ear [1, 8] | also measured |
| --- | --- | --- | --- |
| > 128 µg/mL | CC[C@H]1OC(=O)[C@H](C)[C@@H](O)[C@H](C)[C@@H](O[C@@H]2O[C@H](C)C[C@H](N(C)C)[C@H]2O)C(C)(O)C[C@@H](C)CN(CCCNCCCCCCNCc2ccccc2)[C@H](C)[C@@H](O)[C@]1(C)O (stereo partly drawn) [Compound 12] |  | inhibition in vivo at 500 µg/ear ([1]; method b: auricular thickness using precision spring calipers): 39.5%; MIC [2]: 64 µg/mL (≈ 77.7 µM); MIC [3]: > 128 µg/mL |
| > 128 µg/mL | CC[C@H]1OC(=O)[C@H](C)[C@@H](O)[C@H](C)[C@@H](O[C@@H]2O[C@H](C)C[C@H]([N+](C)(C)[O-])[C@H]2O)C(C)(O)C[C@@H](C)CN(C)[C@H](C)[C@@H](O)[C@]1(C)O (stereo partly drawn) [Compound 1] | 56.7% | Str. pyogen. ATTC 19615 128 (μg/ml) [5]: not active; Sta. aureus ATCC 6538 128 (μg/ml) [6]: not active; ED/50 (dose that caused 50% reduction in the neutrophil count in the bronchial wash fluid) [7]: 10 µmol/kg |
|  | CC[C@H]1OC(=O)[C@H](C)[C@@H](O[C@H]2C[C@@](C)(OC)[C@@H](O)[C@H](C)O2)[C@H](C)[C@@H](O[C@@H]2O[C@H](C)C[C@H](N(C)C)[C@H]2O)[C@](C)(O)C[C@@H](C)CN(C)[C@H](C)[C@@H](O)[C@]1(C)O [Azithromycin, reference compound] | 40% |  |
|  | CC[C@H]1OC(=O)[C@H](C)[C@@H](O)[C@H](C)[C@@H](O[C@@H]2O[C@H](C)C[C@H](N(C)C)[C@H]2O)C(C)(O)C[C@@H](C)CN(CCCNCc2c[nH]cn2)[C@H](C)[C@@H](O)[C@]1(C)O (stereo partly drawn) [Compound 8] | 29.7% |  |
| 64 µg/mL (≈ 87.6 µM) | CC[C@H]1OC(=O)[C@H](C)[C@@H](O)[C@H](C)[C@@H](O[C@@H]2O[C@H](C)C[C@H](N(C)C)[C@H]2O)C(C)(O)C[C@H](C)CN(CCCNCc2nccs2)[C@H](C)[C@@H](O)[C@]1(C)O (stereo partly drawn) [Compound 6] |  | MIC [2]: 8 µg/mL (≈ 10.9 µM); MIC [3]: 64 µg/mL (≈ 87.6 µM) |
|  | CC[C@H]1OC(=O)[C@H](C)[C@@H](O)[C@H](C)[C@@H](O[C@@H]2O[C@H](C)C[C@H](N(C)C(C)=O)[C@H]2O)C(C)(O)C[C@@H](C)CN(C)[C@H](C)[C@@H](O)[C@]1(C)O (stereo partly drawn) [Compound 5] | 40.5% |  |
|  | CC[C@H]1OC(=O)[C@H](C)[C@@H](O)[C@H](C)[C@@H](O[C@@H]2O[C@H](C)CC[C@H]2O)C(C)(O)C[C@@H](C)CN(C)[C@H](C)[C@@H](O)[C@]1(C)O (stereo partly drawn) [Compound 4] | 16.5% |  |
|  | CC[C@H]1OC(=O)[C@H](C)[C@@H](O)[C@H](C)[C@@H](O[C@@H]2O[C@H](C)C[C@H]([N+](C)(C)[O-])[C@H]2O)C(C)(O)C[C@@H](C)C[N+](C)([O-])[C@H](C)[C@@H](O)[C@]1(C)O (stereo partly drawn) [Compound 2] | 25.3% |  |
|  | CC[C@H]1OC(=O)[C@H](C)[C@@H](O)[C@H](C)[C@@H](O[C@@H]2O[C@H](C)C=C[C@H]2O)C(C)(O)C[C@@H](C)CN(C)[C@H](C)[C@@H](O)[C@]1(C)O (stereo partly drawn) [Compound 3] | 34.4% |  |
|  | CC[C@H]1OC(=O)[C@H](C)[C@@H](O)[C@H](C)[C@@H](O[C@@H]2O[C@H](C)CC[C@H]2O)C(C)(O)C[C@@H](C)CN(CCCNCCNCc2nccs2)[C@H](C)[C@@H](O)[C@]1(C)O (stereo partly drawn) [Compound 13] | 44.7% |  |
| 1 µg/mL (≈ 1.36 µM) | CC[C@H]1OC(=O)[C@H](C)[C@@H](O[C@H]2C[C@@](C)(OC)[C@@H](O)[C@H](C)O2)[C@H](C)[C@@H](O[C@@H]2O[C@H](C)C[C@H](N(C)C)[C@H]2O)[C@](C)(O)C[C@@H](C)C(=O)[C@H](C)[C@@H](O)[C@]1(C)O [Erythromycin, erythromycin, reference compound] | 42% | MIC [2]: 0.12 µg/mL (≈ 0.164 µM); MIC [3]: 0.25 µg/mL (≈ 0.341 µM); ED/50 (dose that caused 50% reduction in the neutrophil count in the bronchial wash fluid) [7]: not active |
